Patent publication US10759816B2, “Heterocyclic compounds as RSV inhibitors” (Enanta Pharmaceuticals, Inc., priority 2016, dated 2020)
pEC50: −log10 of the molar value.

tested on: genotype A, "Long" strain RSV; assay: RSV-A in vitro cytoprotection assay in HEp-2 cells (ATPlite readout of cell viability); format: cell-based, Human respiratory syncytial virus; conditions: human respiratory syncytial virus, HEp-2, HEp-2 cells, genotype A “Long” strain RSV, cytoprotection; read-out: Human RSV-A (“Long” strain) EC50
Method in brief: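 Cytoprotection measured as ATP-based luminescence (ATPlite) after 4-day incubation of RSV Long-infected HEp-2 cells (8,000/well, 10% FBS DMEM) with 2-fold serial compound dilutions in duplicate. Identically treated virus-free plate gives cytotoxicity; EC50 calculated from viability.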

`COc1cccc2c1ccn2-c1cccc(C(=O)N2CCc3cc(C(=O)NC4CC4)sc3-c3ccccc32)n1` [Example 114] and `O=C(NC1CC1)c1cc2c(s1)-c1ccccc1N(C(=O)c1cccc(-n3cnc4ncccc43)n1)CC2` [Example 121] cannot be ordered by pEC50: under 6.10 for the first, under 6.10 for the second.

First: O=C(NC1CC1)c1cc2c(s1)-c1ccccc1N(C(=O)c1cccc(NCC3CCOC3)n1)CC2 (centres unmarked) [Example 291]
Second: O=C(NC1CC1)c1cc2c(s1)-c1ccccc1N(C(=O)c1cccc(-c3cnn(C4CCOCC4)c3)n1)CC2 [Example 76]
The pEC50 of the first is lower: under 6.10 for the first, 6.10 to 6.40 for the second. The second is the more potent here.

First: O=C(NC1CC1)c1cc2c(s1)-c1ccccc1N(C(=O)c1cc(N3CCOCC3)ccn1)CC2 [Example 48]
Second: O=C(NC1CC1)c1cc2c(s1)-c1ccccc1N(C(=O)c1cccc(N3CCC4(CCOCC4)CC3)n1)CC2 [Example 26]
The pEC50 of the first is lower: under 6.10 for the first, 6.10 to 6.40 for the second. The second is the more potent here.

Compared with `CCN(CCOC)c1cccc(C(=O)N2CCc3cc(C(=O)Nc4c(C)cccc4F)sc3-c3ccccc32)n1` [Example 348], `Cc1cccc(F)c1NC(=O)c1cc2c(s1)-c1ccccc1N(C(=O)c1cccc(-c3cn(CCN(C)C)nc3C3CC3)n1)CC2` [Example 228] is lower in pEC50: over 6.40 for the first, under 6.10 for the second. The first is the more potent here.

Going from `COC(=O)N[C@H]1C[C@H](C)N(c2cccc(C(=O)N3CCc4cc(C(=O)Nc5c(C)cccc5F)sc4-c4ccccc43)n2)C1` [Example 391] to `Cc1cccc(F)c1NC(=O)c1cc2c(s1)-c1ccccc1N(C(=O)c1cccc(N3C[C@H]4COC[C@H]4C3)n1)CC2` [Example 376], the pEC50 falls from over 6.40 to under 6.10. The first is the more potent here.

`Cc1cccc(F)c1NC(=O)c1cc2c(s1)-c1ccccc1N(C(=O)c1cccc(N(C[C@H]3CCCO3)C3CCC3)n1)CC2` [Example 481] and `Cc1cccc(F)c1NC(=O)c1cc2c(s1)-c1ccccc1N(C(=O)c1cccc(N3CCOCC(F)(F)C3)n1)CC2` [Example 400] cannot be ordered by pEC50: over 6.40 for the first, over 6.40 for the second.

`O=C(NC1CC1)c1cc2c(s1)-c1ccccc1N(C(=O)c1cccc(N3CCOCc4ccccc43)n1)CC2` [Example 320] and `O=C(NC1CC1)c1cc2c(s1)-c1ccccc1N(C(=O)c1cccc(-c3ccc(N4CCCC4)nc3)n1)CC2` [Example 80] cannot be ordered by pEC50: under 6.10 for the first, under 6.10 for the second.

`Cc1cccc(F)c1NC(=O)c1cc2c(s1)-c1ccccc1N(C(=O)c1cccc(-c3cnn(Cc4ccccc4)c3-c3ccccn3)n1)CC2` [Example 232] and `Cc1cccc(F)c1NC(=O)c1cc2c(s1)-c1ccccc1N(C(=O)c1cccc(-c3coc4cccnc34)n1)CC2` [Example 257] cannot be ordered by pEC50: under 6.10 for the first, under 6.10 for the second.

`Cc1cccc(F)c1NC(=O)c1cc2c(s1)-c1ccccc1N(C(=O)c1cccc(N(C)Cc3ccc4ncccc4c3)n1)CC2` [Example 360] and `Cc1cccc(F)c1NC(=O)c1cc2c(s1)-c1ccccc1N(C(=O)c1cccc(NCc3ncco3)n1)CC2` [Example 350] cannot be ordered by pEC50: over 6.40 for the first, over 6.40 for the second.

`Cc1cccc(F)c1NC(=O)c1cc2c(s1)-c1ccc(F)cc1N(C(=O)c1cccc(N3CCOc4ccccc4C3)n1)CC2` [Example 488] and `Cc1cccc(F)c1NC(=O)c1cc2c(s1)-c1ccccc1N(C(=O)c1cccc(N3CCC[C@@H]3c3ccccc3)n1)CC2` [Example 473] cannot be ordered by pEC50: over 6.40 for the first, over 6.40 for the second.

`Cc1cccc(F)c1NC(=O)c1cc2c(s1)-c1ccccc1N(C(=O)c1cccc(-c3c[nH]nc3C(F)(F)F)n1)CC2` [Example 210] and `Cc1cccc(F)c1NC(=O)c1cc2c(s1)-c1ccccc1N(C(=O)c1cccc(N3CCCN(S(C)(=O)=O)CC3)n1)CC2` [Example 384] cannot be ordered by pEC50: over 6.40 for the first, over 6.40 for the second.

First: O=C(NCc1ccccc1)c1cc2c(s1)-c1ccccc1N(C(=O)c1cccc(N3CCOc4ccccc4C3)n1)CC2 [Example 305]
Second: O=C(NC1CC1)c1cc2c(s1)-c1ccccc1N(C(=O)c1cccc(N3CCOCC4(CCOCC4)C3)n1)CC2 [Example 284]
The pEC50 of the first is lower: 6.10 to 6.40 for the first, over 6.40 for the second.

First: Cc1cnc(N2CC3(CCOCC3)C2)c(NC(=O)c2ccc(C(=O)N3CCc4cc(C(=O)Nc5c(C)cccc5F)sc4-c4ccccc43)cc2)c1 [Example 142]
Second: O=C(Nc1ncc2c(n1)-c1ccccc1N(C(=O)c1cccc(N3CCCOCC3)n1)CC2)C1CC1 [Example 111]
The pEC50 of the first is higher: over 6.40 for the first, under 6.10 for the second. The first is the more potent here.
